# From ChEMBL document CHEMBL5291721, “A preclinical secondary pharmacology resource illuminates target-adverse drug reaction associations of marketed drugs” (Nat Commun, 2023)
# Key:
# [1] = target: Beta-3 adrenergic receptor (Homo sapiens, UniProt P13945)
# Glucagon receptor = Glucagon receptor (Homo sapiens, UniProt P47871)
# [2] = target: T1, Neuropeptide Y receptor type 2 (Homo sapiens, UniProt P49146)
# T1 sequence (P49146 whole entry): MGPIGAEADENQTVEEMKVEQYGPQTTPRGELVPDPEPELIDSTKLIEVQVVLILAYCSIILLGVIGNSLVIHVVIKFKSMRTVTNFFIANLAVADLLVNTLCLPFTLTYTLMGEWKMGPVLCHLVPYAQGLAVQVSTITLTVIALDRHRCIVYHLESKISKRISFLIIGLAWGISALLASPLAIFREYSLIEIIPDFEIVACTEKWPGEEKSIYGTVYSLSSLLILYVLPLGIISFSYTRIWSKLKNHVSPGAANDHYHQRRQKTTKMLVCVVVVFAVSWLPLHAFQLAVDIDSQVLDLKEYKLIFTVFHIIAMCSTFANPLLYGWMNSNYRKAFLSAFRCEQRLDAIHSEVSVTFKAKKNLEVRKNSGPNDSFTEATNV
# Progesterone receptor = target: T2, Progesterone receptor (Homo sapiens, UniProt P06401)
# T2 sequence (P06401 whole entry): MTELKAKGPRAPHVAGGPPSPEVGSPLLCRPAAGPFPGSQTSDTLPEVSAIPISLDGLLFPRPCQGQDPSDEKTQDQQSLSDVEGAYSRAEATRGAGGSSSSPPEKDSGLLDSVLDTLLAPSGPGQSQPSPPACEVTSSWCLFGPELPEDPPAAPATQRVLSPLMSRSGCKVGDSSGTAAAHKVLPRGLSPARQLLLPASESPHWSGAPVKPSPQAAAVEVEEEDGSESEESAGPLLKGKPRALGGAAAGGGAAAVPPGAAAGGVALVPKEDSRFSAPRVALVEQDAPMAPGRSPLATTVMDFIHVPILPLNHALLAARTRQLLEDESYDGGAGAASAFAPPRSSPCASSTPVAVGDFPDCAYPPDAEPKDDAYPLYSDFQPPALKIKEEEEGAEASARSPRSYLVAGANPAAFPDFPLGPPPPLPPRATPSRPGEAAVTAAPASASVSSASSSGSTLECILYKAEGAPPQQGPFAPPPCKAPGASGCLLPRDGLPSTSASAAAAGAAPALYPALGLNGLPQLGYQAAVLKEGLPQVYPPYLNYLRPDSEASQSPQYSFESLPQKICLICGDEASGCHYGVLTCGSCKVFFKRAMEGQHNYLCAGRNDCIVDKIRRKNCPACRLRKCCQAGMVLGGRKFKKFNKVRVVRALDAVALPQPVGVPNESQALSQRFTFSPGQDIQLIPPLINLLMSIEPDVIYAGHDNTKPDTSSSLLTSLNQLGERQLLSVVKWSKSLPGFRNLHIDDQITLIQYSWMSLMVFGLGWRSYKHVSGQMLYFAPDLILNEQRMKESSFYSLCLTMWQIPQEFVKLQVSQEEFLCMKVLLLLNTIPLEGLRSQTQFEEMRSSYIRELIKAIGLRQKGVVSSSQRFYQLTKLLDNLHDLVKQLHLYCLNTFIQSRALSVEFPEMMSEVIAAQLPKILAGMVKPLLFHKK
# [3] = target: T3, Muscarinic acetylcholine receptor M2 (Homo sapiens, UniProt P08172)
# T3 sequence (P08172 whole entry): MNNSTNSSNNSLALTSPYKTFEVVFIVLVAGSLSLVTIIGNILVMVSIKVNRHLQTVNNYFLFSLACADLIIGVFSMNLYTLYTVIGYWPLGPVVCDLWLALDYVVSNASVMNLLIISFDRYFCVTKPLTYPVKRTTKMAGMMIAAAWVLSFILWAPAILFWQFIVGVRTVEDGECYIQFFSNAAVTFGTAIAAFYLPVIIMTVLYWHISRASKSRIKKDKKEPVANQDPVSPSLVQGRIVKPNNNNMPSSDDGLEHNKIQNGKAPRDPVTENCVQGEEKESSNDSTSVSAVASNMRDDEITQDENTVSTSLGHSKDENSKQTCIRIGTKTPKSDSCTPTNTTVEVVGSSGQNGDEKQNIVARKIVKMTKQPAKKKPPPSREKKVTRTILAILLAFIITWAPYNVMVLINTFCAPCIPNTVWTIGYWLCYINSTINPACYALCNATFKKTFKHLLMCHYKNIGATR
# [4] = target: Gamma-aminobutyric acid receptor subunit alpha-1/alpha-2/beta-2/gamma-2 (Homo sapiens, UniProt P14867+P18507+P47869+P47870); format: functional, cell-based
# Androgen receptor = target: T4, Androgen receptor (Rattus norvegicus, UniProt P15207)
# T4 sequence (P15207 whole entry): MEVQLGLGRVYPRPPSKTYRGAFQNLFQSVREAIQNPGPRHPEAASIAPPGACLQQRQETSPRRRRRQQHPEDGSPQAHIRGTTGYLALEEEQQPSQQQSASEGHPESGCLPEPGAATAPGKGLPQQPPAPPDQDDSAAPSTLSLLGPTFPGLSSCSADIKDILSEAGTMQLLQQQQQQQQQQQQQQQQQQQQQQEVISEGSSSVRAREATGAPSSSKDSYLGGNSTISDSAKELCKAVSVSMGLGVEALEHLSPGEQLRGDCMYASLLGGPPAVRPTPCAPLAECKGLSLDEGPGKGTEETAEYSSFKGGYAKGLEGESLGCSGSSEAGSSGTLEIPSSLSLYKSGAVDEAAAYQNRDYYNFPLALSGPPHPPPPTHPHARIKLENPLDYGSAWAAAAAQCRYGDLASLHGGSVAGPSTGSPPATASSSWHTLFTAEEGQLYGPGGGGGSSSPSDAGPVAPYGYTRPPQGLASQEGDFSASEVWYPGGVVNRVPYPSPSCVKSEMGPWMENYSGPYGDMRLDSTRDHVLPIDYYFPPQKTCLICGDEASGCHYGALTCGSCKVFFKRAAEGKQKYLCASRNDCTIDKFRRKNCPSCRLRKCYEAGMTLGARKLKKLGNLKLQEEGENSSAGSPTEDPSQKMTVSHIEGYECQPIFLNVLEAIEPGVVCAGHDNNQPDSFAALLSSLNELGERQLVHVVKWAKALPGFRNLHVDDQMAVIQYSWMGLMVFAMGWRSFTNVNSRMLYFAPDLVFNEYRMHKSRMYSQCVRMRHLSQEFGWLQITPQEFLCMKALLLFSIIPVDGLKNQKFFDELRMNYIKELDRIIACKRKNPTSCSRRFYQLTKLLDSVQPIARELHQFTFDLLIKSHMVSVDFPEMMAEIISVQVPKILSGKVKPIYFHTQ
# D(1A) dopamine receptor = D(1A) dopamine receptor (Homo sapiens, UniProt P21728)
# [5] = target: Prostaglandin G/H synthase 1 (Homo sapiens, UniProt P23219); format: functional
# Also: assay procedure not described here.
# Sequence of Beta-3 adrenergic receptor (P13945 whole entry): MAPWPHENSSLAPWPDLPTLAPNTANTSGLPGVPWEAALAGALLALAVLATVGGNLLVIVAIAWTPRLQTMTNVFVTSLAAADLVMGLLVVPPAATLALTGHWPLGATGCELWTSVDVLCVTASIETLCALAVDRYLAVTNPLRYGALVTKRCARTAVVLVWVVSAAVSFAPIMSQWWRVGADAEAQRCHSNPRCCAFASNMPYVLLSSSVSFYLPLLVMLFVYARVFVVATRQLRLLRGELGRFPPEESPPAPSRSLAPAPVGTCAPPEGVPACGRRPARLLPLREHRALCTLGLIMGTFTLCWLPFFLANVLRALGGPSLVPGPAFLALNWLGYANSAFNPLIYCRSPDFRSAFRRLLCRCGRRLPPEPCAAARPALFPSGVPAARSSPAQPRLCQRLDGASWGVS
# Sequence of Gamma-aminobutyric acid receptor subunit alpha-1/alpha-2/beta-2/gamma-2 (P14867 whole entry): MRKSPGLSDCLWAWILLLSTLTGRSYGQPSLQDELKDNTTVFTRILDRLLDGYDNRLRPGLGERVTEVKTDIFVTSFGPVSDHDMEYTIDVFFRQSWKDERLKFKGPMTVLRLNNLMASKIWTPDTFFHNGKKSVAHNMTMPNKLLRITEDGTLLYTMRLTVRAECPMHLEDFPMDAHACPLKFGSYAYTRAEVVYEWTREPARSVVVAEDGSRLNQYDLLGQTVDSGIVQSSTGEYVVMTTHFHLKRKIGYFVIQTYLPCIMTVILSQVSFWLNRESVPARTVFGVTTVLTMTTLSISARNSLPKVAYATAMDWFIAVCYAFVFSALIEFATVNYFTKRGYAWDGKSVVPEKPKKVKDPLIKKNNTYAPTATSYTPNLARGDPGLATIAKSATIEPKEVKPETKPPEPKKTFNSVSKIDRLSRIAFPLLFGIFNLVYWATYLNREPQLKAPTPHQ
# Sequence of Gamma-aminobutyric acid receptor subunit alpha-1/alpha-2/beta-2/gamma-2 (P47870 whole entry): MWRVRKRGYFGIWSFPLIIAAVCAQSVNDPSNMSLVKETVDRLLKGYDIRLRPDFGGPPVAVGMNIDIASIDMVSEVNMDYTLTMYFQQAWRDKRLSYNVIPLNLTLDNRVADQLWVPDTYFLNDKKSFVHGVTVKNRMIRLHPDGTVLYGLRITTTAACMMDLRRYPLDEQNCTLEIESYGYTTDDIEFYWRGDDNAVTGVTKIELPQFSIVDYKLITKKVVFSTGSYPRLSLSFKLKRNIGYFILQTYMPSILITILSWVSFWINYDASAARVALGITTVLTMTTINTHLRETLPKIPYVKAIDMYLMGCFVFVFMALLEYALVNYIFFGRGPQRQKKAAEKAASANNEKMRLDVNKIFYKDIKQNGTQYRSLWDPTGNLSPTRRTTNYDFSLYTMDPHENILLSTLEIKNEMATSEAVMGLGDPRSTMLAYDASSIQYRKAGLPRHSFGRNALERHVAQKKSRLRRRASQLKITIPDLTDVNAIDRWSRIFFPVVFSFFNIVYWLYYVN
# Sequence of Gamma-aminobutyric acid receptor subunit alpha-1/alpha-2/beta-2/gamma-2 (P18507 whole entry): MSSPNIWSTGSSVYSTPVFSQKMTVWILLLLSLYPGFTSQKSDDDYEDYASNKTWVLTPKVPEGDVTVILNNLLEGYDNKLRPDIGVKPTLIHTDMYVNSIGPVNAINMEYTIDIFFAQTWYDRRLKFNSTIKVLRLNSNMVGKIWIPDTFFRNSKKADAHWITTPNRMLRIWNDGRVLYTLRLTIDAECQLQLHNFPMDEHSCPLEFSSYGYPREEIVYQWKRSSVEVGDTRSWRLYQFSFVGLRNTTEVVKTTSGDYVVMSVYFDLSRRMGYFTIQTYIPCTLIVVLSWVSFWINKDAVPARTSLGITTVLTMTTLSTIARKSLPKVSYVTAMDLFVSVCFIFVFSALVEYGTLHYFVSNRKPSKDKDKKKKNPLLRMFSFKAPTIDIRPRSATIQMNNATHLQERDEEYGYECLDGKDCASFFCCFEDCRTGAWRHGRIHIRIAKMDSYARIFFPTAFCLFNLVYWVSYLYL
# Sequence of Gamma-aminobutyric acid receptor subunit alpha-1/alpha-2/beta-2/gamma-2 (P47869 whole entry): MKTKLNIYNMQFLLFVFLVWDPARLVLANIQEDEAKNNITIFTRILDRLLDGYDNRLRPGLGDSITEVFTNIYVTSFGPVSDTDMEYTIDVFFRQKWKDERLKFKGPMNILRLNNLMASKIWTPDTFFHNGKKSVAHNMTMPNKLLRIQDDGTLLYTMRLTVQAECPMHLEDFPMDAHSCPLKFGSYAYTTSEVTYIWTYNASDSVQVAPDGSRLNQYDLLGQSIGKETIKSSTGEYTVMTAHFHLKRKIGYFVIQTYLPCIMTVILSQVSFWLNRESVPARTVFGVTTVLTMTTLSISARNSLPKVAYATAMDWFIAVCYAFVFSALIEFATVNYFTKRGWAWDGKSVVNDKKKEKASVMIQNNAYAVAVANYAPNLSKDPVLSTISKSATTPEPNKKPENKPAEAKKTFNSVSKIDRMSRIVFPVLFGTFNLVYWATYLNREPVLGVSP
# Sequence of Prostaglandin G/H synthase 1 (P23219 whole entry): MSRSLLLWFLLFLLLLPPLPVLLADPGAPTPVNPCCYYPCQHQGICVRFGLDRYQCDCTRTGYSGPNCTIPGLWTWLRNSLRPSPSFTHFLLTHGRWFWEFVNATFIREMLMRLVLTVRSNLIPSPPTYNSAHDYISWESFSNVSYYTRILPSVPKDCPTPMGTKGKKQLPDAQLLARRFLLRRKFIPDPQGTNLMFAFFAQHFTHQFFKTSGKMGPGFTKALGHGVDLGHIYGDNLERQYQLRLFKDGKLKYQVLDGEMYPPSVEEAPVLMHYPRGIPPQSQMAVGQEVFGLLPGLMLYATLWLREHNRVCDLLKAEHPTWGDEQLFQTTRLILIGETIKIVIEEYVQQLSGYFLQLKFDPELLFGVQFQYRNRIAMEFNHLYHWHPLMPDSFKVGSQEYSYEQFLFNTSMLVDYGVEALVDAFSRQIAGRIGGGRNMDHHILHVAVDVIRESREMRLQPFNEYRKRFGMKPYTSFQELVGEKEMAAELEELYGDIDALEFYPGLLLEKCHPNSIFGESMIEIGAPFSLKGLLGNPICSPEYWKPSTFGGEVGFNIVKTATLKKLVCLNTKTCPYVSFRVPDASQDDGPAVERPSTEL
# Sequence of D(1A) dopamine receptor (P21728 whole entry): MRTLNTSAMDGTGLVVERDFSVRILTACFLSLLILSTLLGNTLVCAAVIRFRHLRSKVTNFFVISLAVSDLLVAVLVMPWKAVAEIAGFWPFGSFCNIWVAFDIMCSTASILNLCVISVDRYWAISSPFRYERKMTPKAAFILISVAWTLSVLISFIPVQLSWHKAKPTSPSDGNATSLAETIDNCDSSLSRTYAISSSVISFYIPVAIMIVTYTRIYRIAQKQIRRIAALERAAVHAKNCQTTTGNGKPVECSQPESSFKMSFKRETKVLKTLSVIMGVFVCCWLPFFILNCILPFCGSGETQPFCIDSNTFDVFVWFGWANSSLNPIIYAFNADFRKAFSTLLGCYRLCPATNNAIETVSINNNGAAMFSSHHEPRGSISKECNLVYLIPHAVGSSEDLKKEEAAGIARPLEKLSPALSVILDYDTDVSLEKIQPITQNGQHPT
# Sequence of Glucagon receptor (P47871 whole entry): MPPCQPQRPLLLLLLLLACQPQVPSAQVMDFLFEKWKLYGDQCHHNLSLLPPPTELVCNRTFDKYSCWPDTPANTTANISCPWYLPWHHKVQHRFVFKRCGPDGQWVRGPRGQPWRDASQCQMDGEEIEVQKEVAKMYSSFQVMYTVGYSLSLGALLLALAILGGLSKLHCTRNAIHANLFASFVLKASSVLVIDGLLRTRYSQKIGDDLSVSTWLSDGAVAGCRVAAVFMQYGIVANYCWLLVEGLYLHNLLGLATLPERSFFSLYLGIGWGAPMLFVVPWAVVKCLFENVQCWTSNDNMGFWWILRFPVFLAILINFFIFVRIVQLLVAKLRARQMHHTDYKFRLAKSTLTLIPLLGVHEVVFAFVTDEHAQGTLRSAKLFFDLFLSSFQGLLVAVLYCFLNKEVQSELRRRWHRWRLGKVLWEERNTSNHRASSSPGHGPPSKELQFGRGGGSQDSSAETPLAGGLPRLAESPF
smiles,measurement,setting,value
CC(=O)OCC(=O)[C@@]1(O)[C@H](C)C[C@H]2[C@@H]3CCC4=CC(=O)C=C[C@]4(C)[C@@]3(F)[C@@H](O)C[C@@]21C [DEXAMETHASONE ACETATE],AC50,[1],> 30 µM
same,AC50,Glucagon receptor,> 30 µM
same,AC50,[2],> 30 µM
same,AC50,Progesterone receptor,> 30 µM
same,AC50,[3],> 10 µM
CCN1CCCC1CNC(=O)c1cc(S(=O)(=O)CC)c(N)cc1OC (configuration not stated) [AMISULPRIDE],AC50,[4],> 30 µM
Cc1ncc2n1-c1ccc(Cl)cc1C(c1ccccc1F)=NC2 [MIDAZOLAM],AC50,Progesterone receptor,> 30 µM
COc1cc2c(cc1OC)C(CCc1ccc(Cl)cc1)N(C)CC2 (configuration not stated) [METHOPHOLINE],AC50,Androgen receptor,> 30 µM
Nc1cc(-c2ccncc2)c[nH]c1=O [INAMRINONE],AC50,Androgen receptor,> 30 µM
same,AC50,Progesterone receptor,> 20 µM
NC(=O)CN1CCCC1=O,AC50,[4],> 30 µM
Cn1cnc2c(F)c(Nc3ccc(Br)cc3Cl)c(C(=O)NOCCO)cc21 [SELUMETINIB],AC50,[1],> 30 µM
same,AC50,Progesterone receptor,> 30 µM
same,AC50,[3],> 10 µM
Cn1c(=O)cc(N2CCC[C@@H](N)C2)n(Cc2ccccc2C#N)c1=O [ALOGLIPTIN],AC50,[1],> 30 µM
same,AC50,Androgen receptor,> 30 µM
same,AC50,Glucagon receptor,> 30 µM
same,AC50,[2],> 30 µM
same,AC50,Progesterone receptor,> 30 µM
same,AC50,[3],> 10 µM
C[N@+]1(CCF)[C@@H]2CC[C@H]1C[C@@H](OC(=O)C(O)(c1ccccc1)c1ccccc1)C2,AC50,[3],0.2 µM
Oc1ccc2c(c1)[C@@]13CCCC[C@@]1(O)[C@@H](C2)N(CC1CCC1)CC3 [BUTORPHANOL],AC50,[4],> 30 µM
O=C1CN=C(c2ccccn2)c2cc(Br)ccc2N1 [BROMAZEPAM],AC50,Androgen receptor,> 10 µM
Nc1c2ccccc2nc2ccccc12 [AMINACRINE],AC50,D(1A) dopamine receptor,11.7 µM
same,AC50,[5],> 30 µM
"O=C(O)CCCCC1CCSS1 (stereo not drawn) [LIPOIC ACID, ALPHA]",AC50,D(1A) dopamine receptor,> 30 µM
same,AC50,[5],> 30 µM
